According to US12092631B2, “Optical thromboelastography systems and methods” (The General Hospital Corporation, priority 2014, dated 2024):

Columns and labels:
[1] = test system: platelets in human whole blood; test: OTEG platelet aggregate size in ADP-activated human whole blood; format: cell-based; details: FIG. 8B
Method: FIGS. 8A, 8B: Preliminary studies to assess platelet aggregation using OTEG methodology. FIG. 8A: Increasing aggregate radius, a, of polystyrene beads (rad=1.5 μm) caused by adding MgCl2 salt is detected by OTEG. Aggregate size was related with salt concentration, confirmed by other reports. FIG. 8B: In human whole blood, OTEG detects a 5-fold and 2.5-fold increase in aggregate size with addition of 10 and 5 μM ADP relative to blood without ADP (control). […] To enable platelet function assessment (PLT channel) via the embodiment of the OTEG device of the present invention, a new strategy was implemented to quantify platelet aggregation in whole blood. […] To estimate the rate and extent of platelet aggregation, speckle frames are processed and MSD values are calculated, as above (FIG. 5; box 3). […] The effective particle radius, a, is then obtained from the Stokes-Einstein relation (SER) (FIG. 5: box 4c), the aggregate growth from the baseline at time t=0 is plotted, and the maximum extent of platelet aggregation (RPLT) is estimated at 10 min to quantify platelet function (FIG. 12B). […] We further verified the capability to detect platelet aggregation in ADP-activated blood and monitored the change of effective aggregate radius. […] Clearly, the effective aggregate radius increase with ADP concentration and can be detected with OTEG with high sensitivity. […]

[2] = test system: platelets in platelet rich plasma; test: OTEG platelet aggregation/disaggregation in platelet rich plasma specimens; format: cell-based; details: FIG. 19A
Method: FIG. 15B is a block-scheme representing an embodiment of the processing algorithm according to the invention for calculating the platelet aggregate size from speckle fluctuations in the plasma. Platelet rich plasma specimen is transferred into an OTEG cartridge, customized for platelet function assessment and preloaded with 20 μl Adenosine 5′-diphosphate solution (Sigma-Aldrich) (i.e. 5 μM final concentration of ADP in the […]). The cartridge is inserted in the OTEG device and speckle acquisition begins immediately. During acquisition, ADP triggers conformational changes followed by aggregation, which increase the average scattering particle radius. Since Ca′ ions are absent, coagulation cascade is not initiated and the plasma appears as a primarily viscous liquid with the viscosity of η=3 centipoises (@ 37° C.), particularly at small length scales probed by platelets. Compared to small isolated platelets, large aggregates experience a shorter range of diffusive motion and induce slower speckle fluctuations. To estimate the rate of platelet aggregation, speckle frames are processed and speckle intensity autocorrelation functions are calculated. Since plasma is an optically dilute material, the mean square displacements (MSD) values of platelet aggregates can be extracted from the g2(t) curves, using the DLS formalism, as shown in FIG. 7(B), box 2. Fitting the MSD to a linear model of MSD=6Dt at early times provides the diffusion coefficient, D, of scattering particles. The effective scattering radius is then obtained from the Stokes-Einstein relation as: α=KbT/(6πDη), where Kb is the Boltzman constant and T is the temperature (degrees Kelvin).

SMILES	increase in aggregate size relative to blood without ADP (control) ([1]; 5 μM ADP)	increase in aggregate size relative to blood without ADP (control) ([1]; 10 μM ADP)	platelet aggregation detected by OTEG ([2]; ADP final concentration 5 μM)	platelet aggregation detected by OTEG ([2]; ADP 5 μM plus Clopidogrel 3 μM)	platelet aggregation detected by OTEG ([2]; ADP 5 μM plus Clopidogrel 30 μM)
Nc1ncnc2c1ncn2[C@@H]1O[C@H](COP(=O)(O)OP(=O)(O)O)[C@@H](O)[C@H]1O [ADP, Adenosine 5′-diphosphate]	2.5 fold	5 fold	rapid and complete platelet aggregation	–	–
COC(=O)[C@H](c1ccccc1Cl)N1CCc2sccc2C1 [Clopidogrel]	–	–	–	rapid initial aggregation, followed by a rapid disaggregation	no aggregation
